One may read the IC50 as the concentration at which inhibition is half-maximal. The low end stands for inhibition by little substance, the high end for a need for much substance.

In assay [1] the target is T1, Sphingosine 1-phosphate receptor 1 (Homo sapiens, UniProt P21453). Description: Antagonist activity at human S1P1 transfected in CHO cells incubated for 120 mins by [gamma-35S]GTP binding assay. Type of assay: functional, cell-based.
In assay [2] the target is T1, Sphingosine 1-phosphate receptor 1. Description: Inhibition of human S1P1 expressed in human HeLa cells incubated for 20 mins by FLIPR assay. Type of assay: cell-based.

T1 sequence (P21453 whole entry): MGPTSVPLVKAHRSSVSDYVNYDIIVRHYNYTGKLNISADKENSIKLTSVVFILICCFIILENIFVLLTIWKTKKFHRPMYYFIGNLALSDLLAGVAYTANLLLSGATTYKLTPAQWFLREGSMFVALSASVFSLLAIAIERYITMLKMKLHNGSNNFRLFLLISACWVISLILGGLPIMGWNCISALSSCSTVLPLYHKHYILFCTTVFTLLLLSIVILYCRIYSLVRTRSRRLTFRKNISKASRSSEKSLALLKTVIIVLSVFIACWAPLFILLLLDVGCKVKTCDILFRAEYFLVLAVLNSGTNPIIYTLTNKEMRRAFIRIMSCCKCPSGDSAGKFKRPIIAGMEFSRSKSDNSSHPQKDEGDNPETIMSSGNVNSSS

Turning to `Cc1cc(-c2cccc(NCc3ccc(Cl)c(Cl)c3)c2)ccc1C(=O)N[C@@H](C)C(=O)O`, the IC50 came to 4270 nM in assay [1] and 170 nM in assay [2].
